Measured values as given in US20120178147A1, “MICROBIAL CULTURES AND METHODS FOR ANAEROBIC BIOREMEDIATION” (priority 2009, published 2012).
Values joined by “and” are separate entries in the source; they are usually repeats but may differ in a detail not shown here. Equal values may be shown once. “Also recorded” adds a separate entry of the source.

Test system: BDI cultures
Experiment: TCC and TCS exposure: TCE reductive dechlorination by Bio-Dechlor INOCULUM
Format: cell-based
Details: for TCE completely dechlorinated to ethene in BDI / TCE transformed to VC in BDI: 1.5 μM TCC or 35 μM TCS, by day 27
Description: Cultures. Two cultures were used in this study: 1) Bio-Dechlor INOCULUM, which was obtained from Dr. Frank Loffler's laboratory at Georgia Tech; 2) DehaloR̂2 culture, developed from a sediment microcosm from the Chesapeake Bay “sediment core-D” with three-times continuous transfers described in Example 1.
TCC and TCS Exposure. For the TCC and TCS test, 1 ml ATCC mixed vitamin solution (Catalog No. MD-VS), 0.25 ml 20 mg/L vitamin B12 solution and 1 ml 500 mM lactate solution were filtered with a 0.2 μm sterile filter and added to 92.5 ml sterile anaerobic media in 160 ml serum bottles, and then 5 ml of culture was transferred into this fresh media. Lactate served as electron donor and carbon source. Fifty μl TCE stock solutions ([…] in methanol) were injected into the media with 500-μl Hamilton air-tight syringe (Reno, Nev.), and the final TCE concentration was 35 μmol per serum bottle. Ten μl TCC or TCS stock solutions in methanol or pure methanol was injected with 10 μl Hamilton air-tight syringe (Reno, Nev.) into the serum bottle. Three concentration levels of TCC or TCS stock solutions were made and listed in Table 8 to make the three final concentration levels of TCC or TCS. The middle concentration level of TCC and TCS in cultures was set according to the solubility of TCC and TCS at 20° C. The highest concentration of TCC and TCS is 10 times the solubility of TCC and TCS at 20° C., and the lowest concentration of TCC and TCS is 10% the solubility of TCC and TCS at 20° C.
The total aqueous volume in 160-ml serum bottle was 100 ml. Four BDI and four DehaloR̂2 cultures were generated for each concentration of TCC or TCS, and three of them were used for TCE dechlorination analysis and the other one was used for DNA extractions and molecular analysis. The error bars in the figures are the standard deviations for three independent cultures under the same conditions.
All cultures were stored in the dark and incubated at 30° C.
Analytical Methods. The concentrations of TCE and their reductive-dechlorinating byproducts, 1,1-DCE, cis-DCE, trans-DCE, VC, and ethene were quantified by gas chromatography with a flame ionization detector (GC-FID).
200 μl headspace gas samples were withdrawn from 160 ml serum bottle with 500 μl gas-tight syringes (Hamilton Company, Reno, Nev.) and analyzed by a Shimadzu GC-2010 (Columbia, Md.) with an Rt™-QSPLOT capillary column (30 m×0.32 mm×10 μm, Restek, Bellefonte, Pa.) and a flame ionization detector (FID). The initial oven temperature was 110° C. and was held constant for 5 min. Then the temperature was raised with a gradient of 10° C./min to 150° C., a second gradient at 20° C./min to 200° C., and a third gradient of 5° C./min to 220° C. At the end of this gradient, the oven temperature was held constant at 220° C. for 5 min. The temperature of FID and injector were 240° C. Ultra high purity helium was the carrier gas for the GC. Ultra high purity hydrogen and zero grade air were used for the FID.
Calibration curves for chlorinated compounds were determined based on the known mass of PCE, TCE, 1,1-DCE, cis-DCE and trans-DCE added to 160 ml serum bottles containing 100 ml of distilled-deionized water and equilibrated at 25° C. overnight. The contents were then analyzed using the Shimadzu GC-FID. Different volumes of 100 ppm and 1000 ppm VC and ethene gas were injected directly into GC using the 500 μl airtight syringe to make their calibration curves. The aqueous concentrations of PCE, TCE and their reaction products were calculated by using reported Henry's constants on the EPA website (Washington and Weaver, 2006)

[1] = highest level: 1.5 μM TCC or 35 μM TCS
[2] = lowest level: 0.015 μM TCC or 0.35 μM TCS
[3] = middle level: 0.15 μM TCC or 3.5 μM TCS

Compound | TCE completely dechlorinated to ethene in BDI | TCE transformed to VC in BDI [%] | Maximum formation rate VC in BDI [1] [μmol vial^−1 day^−1] | Maximum formation rate cis-DCE in BDI [1] [μmol vial^−1 day^−1] | Maximum utilization rate TCE in BDI [1] [μmol vial^−1 day^−1] | Maximum utilization rate cis-DCE in BDI [1] [μmol vial^−1 day^−1] | effect on TCE reductive dechlorination in BDI cultures [1] | Maximum formation rate Ethene in BDI [2] [μmol vial^−1 day^−1] | Maximum formation rate VC in BDI [2] [μmol vial^−1 day^−1] | Maximum formation rate cis-DCE in BDI [2] [μmol vial^−1 day^−1] | Maximum utilization rate TCE in BDI [2] [μmol vial^−1 day^−1] | Maximum utilization rate VC in BDI [2] [μmol vial^−1 day^−1] | Maximum utilization rate cis-DCE in BDI [2] [μmol vial^−1 day^−1] | effect on TCE reductive dechlorination in BDI cultures [2] | Maximum formation rate Ethene in BDI [3] [μmol vial^−1 day^−1] | Maximum formation rate VC in BDI [3] [μmol vial^−1 day^−1] | Maximum formation rate cis-DCE in BDI [3] [μmol vial^−1 day^−1] | Maximum utilization rate TCE in BDI [3] [μmol vial^−1 day^−1] | Maximum utilization rate VC in BDI [3] [μmol vial^−1 day^−1] | Maximum utilization rate cis-DCE in BDI [3] | further results
O=C(Nc1ccc(Cl)cc1)Nc1ccc(Cl)c(Cl)c1 [TCC, 3-(4-chlorophenyl)-1-(3,4-dichlorphenyl) urea] | 10% | 90 | 1.65 | 3.94 | 4.22 | 1.29 | significantly inhibited TCE reductive dechlorination | 2.32 | 1.11 | 7.98 | 9.23 | 1.35 | 2.99 | had no influence on TCE reductive dechlorination; also recorded: did not show any obvious effect | 3.3 | 1.38 | 7.04 | 7.47 | 0.33 | 2.6 μmol vial^−1 day^−1 | Maximum formation rate Ethene in BDI (highest level: 1.5 μM TCC): 0.19 μmol vial^−1 day^−1; effect on TCE reductive dechlorination in BDI cultures [3]: did not show any obvious effect
Oc1cc(Cl)ccc1Oc1ccc(Cl)cc1Cl [TCS, 5-chloro-2-[2,4-dichloro-phenoxy]-phenol] | no ethene was produced | 7 | 1.21 | 6.41 | 8.75 | 0.11 | significantly inhibited TCE reductive dechlorination | 2.61 | 1.14 | 6.69 | 9.58 | 1.14 | 2.72 | had no influence on TCE reductive dechlorination; also recorded: did not show any obvious effect | 3.95 | 1.54 | 7.24 | 9.36 | 0.62 | 2.39 μmol vial^−1 day^−1 and 2.4 μmol vial^−1 day^−1 | VC produced in BDI (35 μM TCS): 3.6 µmol; TCE not dechlorinated in BDI (35 μM TCS, 27-day experiment): approximately 9%; TCE transformed to cis-DCE in BDI (35 μM TCS, within 27 days): 84%; effect on TCE reductive dechlorination in BDI cultures [3]: did not show any obvious effect
